Assay results: PMC3969271, “A Bacterial Homolog of a Eukaryotic Inositol Phosphate Signaling Enzyme Mediates Cross-kingdom Dialog in the Mammalian Gut” (Cell Reports, 2014)

Legend:
BtMinpp [1] = molecular target: T1, BtMinpp (Bacteroides thetaiotaomicron, UniProt Q89YI8); assay: HPLC of […]-labelled products; phosphatase activity; format: biochemical; conditions: 1 mM InsP6; 0.25 μg/ml enzyme; labelled compound
T1 construct: gene BT_4744; N-terminal 6xHis fusion, expressed in Escherichia coli
T1 sequence (Q89YI8 21-425): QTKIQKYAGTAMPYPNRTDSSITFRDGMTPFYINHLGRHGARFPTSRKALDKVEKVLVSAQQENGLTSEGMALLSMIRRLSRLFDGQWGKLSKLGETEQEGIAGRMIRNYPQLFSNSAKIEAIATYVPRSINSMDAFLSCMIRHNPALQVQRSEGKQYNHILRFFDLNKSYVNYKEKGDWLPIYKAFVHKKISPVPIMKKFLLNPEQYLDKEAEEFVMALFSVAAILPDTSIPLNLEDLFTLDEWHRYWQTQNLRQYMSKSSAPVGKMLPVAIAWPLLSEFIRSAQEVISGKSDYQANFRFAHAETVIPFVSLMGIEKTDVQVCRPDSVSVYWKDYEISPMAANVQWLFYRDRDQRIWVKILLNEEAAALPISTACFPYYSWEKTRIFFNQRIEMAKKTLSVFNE

BtMinpp [2] = molecular target: T1, BtMinpp; assay: X-ray crystal structure, […] Å; format: binding; conditions: active site; nonhydrolysable InsP6 analog

With `O=P(O)(O)O[C@H]1[C@H](OP(=O)(O)O)[C@@H](OP(=O)(O)O)[C@H](OP(=O)(O)O)[C@@H](OP(=O)(O)O)[C@H]1OP(=O)(O)O` [InsP6] as the compound, how does the “HPLC of 32P-labelled products; phosphatase activity” value (BtMinpp [1]) read?
The value was “confirmed that this protein has InsP6 phosphatase activity (Figure 1A)”.

How did the “X-ray crystal structure, 2.42 Å” value (BtMinpp [2]) turn out when `O=S(=O)(O)O[C@H]1[C@H](OS(=O)(=O)O)[C@@H](OS(=O)(=O)O)[C@H](OS(=O)(=O)O)[C@@H](OS(=O)(=O)O)[C@H]1OS(=O)(=O)O` [InsS6, myo-inositol hexakissulfate] was run?
The value was “myo-inositol hexakissulfate (InsS6), again bound in the active sites of both molecules”.
